Reference: ChEMBL document CHEMBL1129273, “Structural modifications of thalidomide produce analogs with enhanced tumor necrosis factor inhibitory activity” (J Med Chem, 1996)

target: T1, Tumor necrosis factor (Homo sapiens, UniProt P01375); experiment: Inhibition of TNF-alpha production in LPS stimulated human PBMCs; format: functional
T1 sequence (P01375 whole entry): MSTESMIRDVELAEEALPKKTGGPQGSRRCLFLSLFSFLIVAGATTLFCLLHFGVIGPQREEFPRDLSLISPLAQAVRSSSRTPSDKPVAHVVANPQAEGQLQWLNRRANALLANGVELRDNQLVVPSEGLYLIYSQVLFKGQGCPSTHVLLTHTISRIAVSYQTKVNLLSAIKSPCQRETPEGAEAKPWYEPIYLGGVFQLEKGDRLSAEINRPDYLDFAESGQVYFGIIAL

Compared with `NC(=O)CC(c1ccc2ccccc2c1)N1C(=O)c2ccccc2C1=O` (stereo unspecified), `NC(=O)CC(c1ccccc1)N1C(=O)c2ccccc2C1=O` (stereo unspecified) is 5.1-fold higher in IC50: 51 µM for the first, 260 µM for the second. The first is the more potent here.

First: CNC(=O)CC(c1ccc(OC)c(OC)c1)N1C(=O)c2ccccc2C1=O (stereo unspecified)
Second: CCNC(=O)CC(c1ccc(OC)c(OC)c1)N1C(=O)c2ccccc2C1=O (stereo unspecified)
The IC50 of the first is 4.4-fold lower: 12 µM for the first, 53 µM for the second.

First: COC(=O)CC(c1ccc(OC)c(OC)c1)N1C(=O)c2ccccc2C1=O (stereo unspecified)
Second: COc1ccc(C(CC(N)=O)N2C(=O)c3ccccc3C2=O)cc1OC (stereo unspecified)
The IC50 of the first is 4.1-fold lower: 2.9 µM for the first, 12 µM for the second.

`NC(=O)CC(c1ccc(Cl)c(Cl)c1)N1C(=O)c2ccccc2C1=O` (stereo unspecified) and `N#Cc1cccc(C(CC(N)=O)N2C(=O)c3ccccc3C2=O)c1` (stereo unspecified) are within 1.5-fold of each other in IC50: 70 µM for the first, 89 µM for the second.

Compared with `COC(=O)CC(c1ccc(OC)c(OC)c1)N1C(=O)c2ccc(N)cc2C1=O` (stereo unspecified), `COC(=O)CC(c1ccc(OC)c(OC)c1)N1C(=O)c2ccc(C(C)(C)C)cc2C1=O` (stereo unspecified) is 11-fold higher in IC50: 0.38 µM for the first, 4.2 µM for the second. The first is the more potent here.

Compared with `COC(=O)CC(c1ccc(OC)c(OC)c1)N1C(=O)c2cccc(N)c2C1=O` (stereo unspecified), `COC(=O)CC(c1ccc(OC)c(OC)c1)N1C(=O)c2cccc(O)c2C1=O` (stereo unspecified) is 33-fold higher in IC50: 0.45 µM for the first, 15 µM for the second.

First: CCOc1ccc(C(CC(N)=O)N2C(=O)c3ccccc3C2=O)cc1OCC (stereo unspecified)
Second: CCCOc1ccc(C(CC(N)=O)N2C(=O)c3ccccc3C2=O)cc1OCCC (stereo unspecified)
The IC50 of the first is 9.8-fold lower: 5.6 µM for the first, 55 µM for the second.

Going from `COc1cccc(C(CC(N)=O)N2C(=O)c3ccccc3C2=O)c1` (stereo unspecified) to `COc1ccc(C(CC(N)=O)N2C(=O)c3ccccc3C2=O)cc1` (stereo unspecified), the IC50 falls from 120 µM to 62 µM (1.9-fold).

`COc1ccc(C(CC(=O)NCc2ccccc2)N2C(=O)c3ccccc3C2=O)cc1OC` (stereo unspecified) and `COc1ccc(C(CC(=O)O)N2C(=O)c3ccccc3C2=O)cc1OC` (stereo unspecified) are within 1.5-fold of each other in IC50: 84 µM for the first, 60 µM for the second.

Compared with `COc1cc(OC)cc(C(CC(N)=O)N2C(=O)c3ccccc3C2=O)c1` (stereo unspecified), `COc1ccc(C(CCO)N2C(=O)c3ccccc3C2=O)cc1OC` (stereo unspecified) is 5.2-fold lower in IC50: 39 µM for the first, 7.5 µM for the second.

Compared with `COC(=O)CC(c1ccc(OC)c(OC)c1)N1C(=O)c2cc3ccccc3cc2C1=O` (stereo unspecified), `N#Cc1ccc(C(CC(N)=O)N2C(=O)c3ccccc3C2=O)cc1` (stereo unspecified) is 32-fold higher in IC50: 4.7 µM for the first, 150 µM for the second.

target: T1, Tumor necrosis factor; experiment: Inhibitory activity of TNF-alpha was measured in the supernatant of human PBMCs stimulated with LPS.; format: functional

Compared with `COC(=O)CC(c1ccc(OC)c(OC)c1)N1C(=O)c2cccc([N+](=O)[O-])c2C1=O` (stereo unspecified), `COC(=O)CC(c1ccc(OC)c(OC)c1)N1C(=O)c2ccc([N+](=O)[O-])cc2C1=O` (stereo unspecified) is 1.9-fold lower in IC50: 64 µM for the first, 34 µM for the second.

First: COC(=O)CC(c1ccc(OC)c(OC)c1)N1C(=O)c2c(Cl)ccc(Cl)c2C1=O (stereo unspecified)
Second: COC(=O)CC(c1ccc(OC)c(OC)c1)N1C(=O)c2cc(Cl)c(Cl)cc2C1=O (stereo unspecified)
The IC50 of the first is 1.6-fold lower: 7.9 µM for the first, 13 µM for the second.
